# Reference: patent publication US6358885B1, “Substituted phenylheterocyclic herbicides” (Mississippi State University, priority 1992, dated 2002)
# Experiments:
# lambsquarters = assay: Test C preemergence/postemergence greenhouse plant response rating 0 to 100; type: in vivo, Chenopodium album; settings: POSTEMERGENCE; for Plant response rating Lambsquarters: 0 to 100 scale
# Method in brief: (§1)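 Compounds in non-phytotoxic solvent went onto sandy loam before emergence (seeded one day earlier) or onto plants at the one-to-four leaf stage. Duck salad was treated via flood water (~2.5 cm, maintained) over silt loam.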
# wheat = assay: as above; type: in vivo, Triticum aestivum; settings: POSTEMERGENCE; for Plant response rating, Wheat: 0 to 100 scale
# Method in brief: as §1
# barnyardgrass = assay: Test C flood test plant response rating 0 to 100; type: in vivo, Echinochloa crus-galli; settings: for Plant response rating (0 to 100), Barnyardgrass: under POSTEMERGENCE head (flood test species); for Plant response rating, Barnyardgrass: flood test species listed under POSTEMERGENCE, 0 to 100 scale
# Method in brief: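 Compounds in non-phytotoxic solvent applied preemergence to sandy loam one day after planting, postemergence at the 1–4 leaf stage, or to ~2.5 cm floodwater over silt loam.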
# bedstraw = assay: Test B preemergence/postemergence greenhouse plant response rating 0 to 10; type: in vivo, Galium aparine; settings: 0 to 10 scale
# Method in brief: (§2)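 Planted seeds are treated preemergence with compound dissolved in a non-phytotoxic solvent, while postemergence applications go onto plants of two to eighteen cm. Plants stay in the greenhouse twelve to sixteen days and are then rated visually relative to controls.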
# wild buckwheat = assay: as above; type: in vivo, Polygonum convolvulus; settings: 0 to 10 scale
# Method in brief: as §2
# blackgrass [1] = assay: Test C preemergence/postemergence greenhouse plant response rating 0 to 100; type: in vivo, Alopecurus myosuroides; settings: POSTEMERGENCE; for Plant response rating, Blackgrass: 0 to 100 scale
# Method in brief: as §1
# cotton = assay: Test B preemergence/postemergence greenhouse plant response rating 0 to 10; type: in vivo, Gossypium hirsutum; settings: 0 to 10 scale
# Method in brief: as §2
# sugar beet = assay: Test C preemergence/postemergence greenhouse plant response rating 0 to 100; type: in vivo, Beta vulgaris; settings: POSTEMERGENCE; for Plant response rating, Sugar beet: 0 to 100 scale
# Method in brief: as §1
# cheatgrass = assay: Test B preemergence/postemergence greenhouse plant response rating 0 to 10; type: in vivo, Bromus secalinus; settings: 0 to 10 scale
# Method in brief: as §2
# ryegrass = assay: Test C preemergence/postemergence greenhouse plant response rating 0 to 100; type: in vivo, Lolium multiflorum; settings: POSTEMERGENCE; for Plant response rating Ryegrass: 0 to 100 scale
# Method in brief: as §1
# rice = assay: Test B preemergence/postemergence greenhouse plant response rating 0 to 10; type: in vivo, Oryza sativa; settings: 0 to 10 scale
# Method in brief: as §2
# barley = assay: as above; type: in vivo, Hordeum vulgare; settings: 0 to 10 scale
# Method in brief: as §2
# rape = assay: Test C preemergence/postemergence greenhouse plant response rating 0 to 100; type: in vivo, Brassica napus; settings: POSTEMERGENCE; for Plant response rating, Rape: 0 to 100 scale
# Method in brief: as §1
# duck salad = assay: Test C flood test plant response rating 0 to 100; type: in vivo, Heteranthera limosa; settings: for Plant response rating (0 to 100), Duck salad: under POSTEMERGENCE head (flood test species); for Plant response rating Duck salad: flood test species listed under POSTEMERGENCE, 0 to 100 scale
# Method in brief: as §1
# giant foxtail = assay: Test C preemergence/postemergence greenhouse plant response rating 0 to 100; type: in vivo, Setaria faberii; settings: POSTEMERGENCE; for Plant response rating, Giant foxtail: 0 to 100 scale
# Method in brief: as §1
# cocklebur = assay: Test B preemergence/postemergence greenhouse plant response rating 0 to 10; type: in vivo, Xanthium pensylvanicum; settings: 0 to 10 scale
# Method in brief: as §2
# blackgrass [2] = assay: as above; type: in vivo, Alopecurus myosuroides; settings: 0 to 10 scale
# Method in brief: as §2
# corn = assay: Test C preemergence/postemergence greenhouse plant response rating 0 to 100; type: in vivo, Zea mays; settings: POSTEMERGENCE; for Plant response rating, Corn: 0 to 100 scale
# Method in brief: as §1
smiles,measurement,setting,value
C=C(Cl)COc1cc(-c2nn3c(c2Cl)CCCC3)c(F)cc1Cl [Compound 40],Plant response rating Lambsquarters,lambsquarters; 62 g/ha,80
same,Plant response rating Lambsquarters,lambsquarters; 125 g/ha,100
same,"Plant response rating (0 to 100), Lambsquarters",lambsquarters; Rate 16 g/ha,70
same,"Plant response rating (0 to 100), Lambsquarters",lambsquarters; Rate 31 g/ha,70
same,"Plant response rating, Wheat",wheat; 62 g/ha,40
same,"Plant response rating, Wheat",wheat; 125 g/ha,50
same,"Plant response rating (0 to 100), Wheat",wheat; Rate 16 g/ha,20
same,"Plant response rating (0 to 100), Wheat",wheat; Rate 31 g/ha,30
same,"Plant response rating (0 to 100), Barnyardgrass",barnyardgrass; Rate 16 g/ha,100
same,"Plant response rating (0 to 100), Barnyardgrass",barnyardgrass; Rate 31 g/ha,100
same,"Plant response rating, Barnyardgrass",barnyardgrass; 62 g/ha,100
same,"Plant response rating, Barnyardgrass",barnyardgrass; 125 g/ha,100
same,"Plant response rating, Bedstraw","bedstraw; POSTEMERGENCE, Rate 50 g/ha",10
same,"Plant response rating, Bedstraw","bedstraw; PREEMERGENCE, Rate 50 g/ha",9
same,"Plant response rating, Bedstraw","bedstraw; Rate 200 g/ha, PREEMERGENCE",9
same,"Plant response rating, Wild buckwheat","wild buckwheat; POSTEMERGENCE, Rate 50 g/ha",9
same,"Plant response rating, Wild buckwheat","wild buckwheat; Rate 200 g/ha, POSTEMERGENCE",10
same,"Plant response rating, Wild buckwheat","wild buckwheat; Rate 200 g/ha, PREEMERGENCE",9
same,"Plant response rating, Blackgrass",blackgrass [1]; 62 g/ha,50
same,"Plant response rating, Blackgrass",blackgrass [1]; 125 g/ha,70
same,"Plant response rating (0 to 100), Blackgrass",blackgrass [1]; Rate 16 g/ha,20
same,"Plant response rating (0 to 100), Blackgrass",blackgrass [1]; Rate 31 g/ha,30
same,"Plant response rating, Cotton","cotton; POSTEMERGENCE, Rate 50 g/ha",10
same,"Plant response rating, Cotton","cotton; POSTEMERGENCE, Rate 200 g/ha",10
same,"Plant response rating, Cotton","cotton; PREEMERGENCE, Rate 50 g/ha",1
same,"Plant response rating, Cotton","cotton; Rate 200 g/ha, PREEMERGENCE",7
same,"Plant response rating, Sugar beet",sugar beet; 62 g/ha,100
same,"Plant response rating, Sugar beet",sugar beet; 125 g/ha,100
same,"Plant response rating (0 to 100), Sugar beet",sugar beet; Rate 16 g/ha,100
same,"Plant response rating (0 to 100), Sugar beet",sugar beet; Rate 31 g/ha,100
same,"Plant response rating, Cheatgrass","cheatgrass; POSTEMERGENCE, Rate 50 g/ha",4
same,"Plant response rating, Cheatgrass","cheatgrass; POSTEMERGENCE, Rate 200 g/ha",4
same,"Plant response rating, Cheatgrass","cheatgrass; PREEMERGENCE, Rate 50 g/ha",0
same,"Plant response rating, Cheatgrass","cheatgrass; Rate 200 g/ha, PREEMERGENCE",4
same,Plant response rating Ryegrass,ryegrass; 62 g/ha,30
same,Plant response rating Ryegrass,ryegrass; 125 g/ha,40
same,"Plant response rating (0 to 100), Ryegrass",ryegrass; Rate 16 g/ha,10
same,"Plant response rating (0 to 100), Ryegrass",ryegrass; Rate 31 g/ha,20
same,"Plant response rating, Rice","rice; POSTEMERGENCE, Rate 50 g/ha",5
same,"Plant response rating, Rice","rice; PREEMERGENCE, Rate 50 g/ha",0
same,"Plant response rating, Rice","rice; Rate 200 g/ha, POSTEMERGENCE",5
same,"Plant response rating, Rice","rice; Rate 200 g/ha, PREEMERGENCE",0
same,"Plant response rating, Barley","barley; POSTEMERGENCE, Rate 50 g/ha",4
same,"Plant response rating, Barley","barley; POSTEMERGENCE, Rate 200 g/ha",5
same,"Plant response rating, Barley","barley; PREEMERGENCE, Rate 50 g/ha",0
same,"Plant response rating, Barley","barley; Rate 200 g/ha, PREEMERGENCE",1
same,"Plant response rating, Rape",rape; 62 g/ha,70
same,"Plant response rating, Rape",rape; 125 g/ha,70
same,"Plant response rating (0 to 100), Rape",rape; Rate 16 g/ha,50
same,"Plant response rating (0 to 100), Rape",rape; Rate 31 g/ha,70
same,"Plant response rating (0 to 100), Duck salad",duck salad; Rate 16 g/ha,0
same,"Plant response rating (0 to 100), Duck salad",duck salad; Rate 31 g/ha,65
same,Plant response rating Duck salad,duck salad; 62 g/ha,80
same,Plant response rating Duck salad,duck salad; 125 g/ha,85
same,"Plant response rating, Giant foxtail",giant foxtail; 62 g/ha,60
same,"Plant response rating, Giant foxtail",giant foxtail; 125 g/ha,70
same,"Plant response rating (0 to 100), Giant foxtail",giant foxtail; Rate 16 g/ha,30
same,"Plant response rating (0 to 100), Giant foxtail",giant foxtail; Rate 31 g/ha,40
same,"Plant response rating, Cocklebur","cocklebur; POSTEMERGENCE, Rate 50 g/ha",5
same,"Plant response rating, Cocklebur","cocklebur; POSTEMERGENCE, Rate 200 g/ha",10
same,"Plant response rating, Cocklebur","cocklebur; PREEMERGENCE, Rate 50 g/ha",5
same,"Plant response rating, Cocklebur","cocklebur; Rate 200 g/ha, PREEMERGENCE",8
same,"Plant response rating, Blackgrass","blackgrass [2]; POSTEMERGENCE, Rate 50 g/ha",2
same,"Plant response rating, Blackgrass","blackgrass [2]; POSTEMERGENCE, Rate 200 g/ha",3
same,"Plant response rating, Blackgrass","blackgrass [2]; Rate 200 g/ha, PREEMERGENCE",2
same,"Plant response rating, Corn",corn; 62 g/ha,30
same,"Plant response rating, Corn",corn; 125 g/ha,30
same,"Plant response rating (0 to 100), Corn",corn; Rate 16 g/ha,30
same,"Plant response rating (0 to 100), Corn",corn; Rate 31 g/ha,30
